{"source": "patent US9452992B2", "about": "(priority 2011, dated 2016)", "key": {"[1]": {"test_system": "VSV particles pseudotyped with EboV Zaire GP", "format": "cell-based, Ebola virus Zaire"}, "[2]": {"test_system": "VSV particles pseudotyped with VSV G", "format": "cell-based, vesicular stomatitis virus"}, "[3]": {"test_system": "EBOV Zaire-1995", "format": "cell-based, Ebola virus Zaire", "conditions": "96 h"}, "[4]": {"molecular_target": "cathepsin B (Homo sapiens, UniProt P07858)", "format": "biochemical"}, "[5]": {"test_system": "thermolysin-cleaved VSV EboV GP particles", "format": "cell-based, Ebola virus Zaire"}, "[6]": {"test_system": "HeLa cells", "format": "cell-based, human"}, "[7]": {"molecular_target": "binding of cleaved EboV GPΔTM to NPC1 membranes (Mus musculus, UniProt O35604)", "sequence (O35604 23-1277 limits assumed, stated change not applied)": "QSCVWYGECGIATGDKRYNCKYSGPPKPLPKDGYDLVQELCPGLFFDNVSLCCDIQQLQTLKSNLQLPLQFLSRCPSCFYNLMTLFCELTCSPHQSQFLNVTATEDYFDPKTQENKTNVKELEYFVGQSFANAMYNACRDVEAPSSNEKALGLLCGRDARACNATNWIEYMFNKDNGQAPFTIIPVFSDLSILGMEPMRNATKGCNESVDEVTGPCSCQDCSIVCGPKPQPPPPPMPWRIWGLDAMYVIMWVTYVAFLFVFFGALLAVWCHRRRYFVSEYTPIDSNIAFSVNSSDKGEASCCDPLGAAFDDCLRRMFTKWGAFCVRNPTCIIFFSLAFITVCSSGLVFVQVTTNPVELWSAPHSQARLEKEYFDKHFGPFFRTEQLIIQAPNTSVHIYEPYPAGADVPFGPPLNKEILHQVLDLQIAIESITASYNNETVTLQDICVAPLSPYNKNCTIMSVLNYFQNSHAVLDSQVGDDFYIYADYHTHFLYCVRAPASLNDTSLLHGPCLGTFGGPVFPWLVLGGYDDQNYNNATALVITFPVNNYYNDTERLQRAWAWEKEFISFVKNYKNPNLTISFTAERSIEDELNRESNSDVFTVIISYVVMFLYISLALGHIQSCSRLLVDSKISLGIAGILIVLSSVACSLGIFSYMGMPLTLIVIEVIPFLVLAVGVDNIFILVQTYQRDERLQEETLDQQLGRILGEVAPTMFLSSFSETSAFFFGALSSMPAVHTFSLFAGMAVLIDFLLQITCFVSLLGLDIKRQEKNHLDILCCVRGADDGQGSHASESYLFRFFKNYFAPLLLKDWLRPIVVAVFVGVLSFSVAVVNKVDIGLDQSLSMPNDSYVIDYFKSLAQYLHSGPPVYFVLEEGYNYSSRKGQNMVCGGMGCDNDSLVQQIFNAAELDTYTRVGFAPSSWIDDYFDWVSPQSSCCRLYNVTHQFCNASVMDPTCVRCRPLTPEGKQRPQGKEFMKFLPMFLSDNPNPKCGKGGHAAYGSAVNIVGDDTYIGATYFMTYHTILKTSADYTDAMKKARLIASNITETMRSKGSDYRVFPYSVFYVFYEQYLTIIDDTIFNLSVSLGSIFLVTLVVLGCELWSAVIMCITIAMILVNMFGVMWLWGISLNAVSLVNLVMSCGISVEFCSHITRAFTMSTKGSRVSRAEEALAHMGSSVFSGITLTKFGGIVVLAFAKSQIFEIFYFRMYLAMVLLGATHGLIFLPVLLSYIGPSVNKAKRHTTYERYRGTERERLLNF"}, "[8]": {"test_system": "EboV", "design": "species or system Ebola virus"}, "[9]": {"test_system": "Ebola virus Zaire-Maying a encoding GFP", "format": "cell-based"}, "[10]": {"molecular_target": "T1, NPC1 (Homo sapiens, UniProt O15118)", "T1 construct": "expressed in transfected cells; host or cells: CHO/NPC1-1 (CHOhNPC1) cells; 15,000 g membrane pellet", "T1 sequence (O15118 23-1278)": "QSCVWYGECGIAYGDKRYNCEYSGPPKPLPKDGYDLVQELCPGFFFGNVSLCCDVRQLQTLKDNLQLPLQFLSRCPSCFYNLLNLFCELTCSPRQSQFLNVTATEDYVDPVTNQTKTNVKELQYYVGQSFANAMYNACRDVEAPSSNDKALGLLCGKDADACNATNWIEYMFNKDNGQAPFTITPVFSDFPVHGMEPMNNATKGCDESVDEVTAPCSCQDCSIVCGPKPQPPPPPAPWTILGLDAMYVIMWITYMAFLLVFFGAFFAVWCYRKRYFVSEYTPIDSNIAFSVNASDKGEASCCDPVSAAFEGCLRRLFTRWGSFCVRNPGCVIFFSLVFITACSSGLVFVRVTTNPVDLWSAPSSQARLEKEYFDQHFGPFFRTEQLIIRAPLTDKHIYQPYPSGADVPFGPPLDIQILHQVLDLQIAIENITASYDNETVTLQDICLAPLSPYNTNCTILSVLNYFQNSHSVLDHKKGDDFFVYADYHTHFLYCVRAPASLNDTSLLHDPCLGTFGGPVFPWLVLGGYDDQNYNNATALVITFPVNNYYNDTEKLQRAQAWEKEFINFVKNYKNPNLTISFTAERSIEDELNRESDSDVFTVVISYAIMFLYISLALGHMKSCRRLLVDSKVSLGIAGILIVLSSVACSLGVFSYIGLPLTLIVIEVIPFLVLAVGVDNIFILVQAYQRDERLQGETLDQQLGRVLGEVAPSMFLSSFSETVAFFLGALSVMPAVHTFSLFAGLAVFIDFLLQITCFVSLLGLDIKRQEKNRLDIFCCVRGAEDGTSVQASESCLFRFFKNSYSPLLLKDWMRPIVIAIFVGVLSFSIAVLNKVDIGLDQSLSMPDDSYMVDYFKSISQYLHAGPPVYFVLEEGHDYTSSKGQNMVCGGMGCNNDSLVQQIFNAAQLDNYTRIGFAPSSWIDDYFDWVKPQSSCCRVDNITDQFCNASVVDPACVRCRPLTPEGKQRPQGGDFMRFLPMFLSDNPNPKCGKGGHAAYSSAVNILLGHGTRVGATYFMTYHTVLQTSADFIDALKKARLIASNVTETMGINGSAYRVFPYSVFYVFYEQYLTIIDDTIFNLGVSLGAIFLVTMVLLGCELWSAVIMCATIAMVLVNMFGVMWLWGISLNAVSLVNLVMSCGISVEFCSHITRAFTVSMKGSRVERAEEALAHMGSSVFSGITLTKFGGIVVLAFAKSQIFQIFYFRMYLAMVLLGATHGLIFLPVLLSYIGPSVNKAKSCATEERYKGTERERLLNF", "format": "binding"}}, "note": "“Also recorded” adds a separate entry of the source."}
{"molecule": "O=C(CC12CC3CC(CC(C3)C1)C2)NCC(=O)N1CCN(Cc2ccccc2)CC1", "note": "[3.0, 2-((3r,5r,7r)-adamantan-1-yl)-N-(2-(4-benzylpiperazin-1-yl)-2-oxoethyl)acetamide]", "values": [{"measurement": "inhibition of EboV GP infection in the screen", "setting": "[1]", "value": "more than 80%"}, {"measurement": "inhibition of EboV GP-dependent infection of Vero cells", "setting": "[1]", "value": "inhibits infection"}, {"measurement": "inhibition of VSV G-dependent infection of Vero cells", "setting": "[2]", "value": "not"}, {"measurement": "reduction of EboV growth on Vero cells", "setting": "[3]", "value": "> 99", "unit": "%"}, {"measurement": "effect on cathepsin B activity", "setting": "[4]", "value": "no effect was observed"}, {"measurement": "inhibition of infection by thermolysin-treated VSV EboV particles", "setting": "[5]", "value": "inhibited infection"}, {"measurement": "cholesterol uptake from LE/LY into cells", "setting": "[6]", "value": "inhibit cholesterol uptake"}, {"measurement": "induction of filipin-labelled cytoplasmic vacuoles", "setting": "[6]", "value": "developed cytoplasmic vacuoles"}, {"measurement": "inhibition of binding of cleaved EboV GPΔTM to NPC1 membranes", "setting": "[7]", "value": "inhibited binding"}]}
{"molecule": "CCN(CC)CCO[C@H]1CC[C@@]2(C)C(=CC[C@@H]3[C@@H]2CC[C@]2(C)C(=O)CC[C@@H]32)C1", "note": "[U18666A, reference compound]", "values": [{"measurement": "inhibition of binding of cleaved EboV GPΔTM to NPC1 membranes", "setting": "[7]", "value": "does not inhibit binding"}]}
{"molecule": "CCCCc1oc2ccccc2c1C(=O)c1cc(I)c(OCCN(CC)CC)c(I)c1", "note": "[amiodarone]", "values": [{"measurement": "anti-EboV activity", "setting": "[8]", "value": "weak anti-EboV activity"}]}
{"molecule": "COC(=O)c1ccc(COc2ccccc2CN2CCN(C(=O)CNC(=O)CC34CC5CC(CC(C5)C3)C4)CC2)cc1", "note": "[compound 3.48, methyl 4-((2-((4-(2-(2-((3r,5r,7r)-adamantan-1-yl)acetamido)acetyl)piperazin-1-yl)methyl)phenoxy)methyl)benzoate]", "values": [{"measurement": "potency as measured by a single cycle of EboV GP-dependent infection, relative to 3.0", "setting": "[1]", "value": "increased the potency"}, {"measurement": "efficacy as measured by growth of EboV on Vero cells, relative to 3.0", "setting": "[9]", "value": "increased"}, {"measurement": "effect on cathepsin B activity", "setting": "[4]", "value": "no effect was observed"}, {"measurement": "inhibition of infection by thermolysin-treated VSV EboV particles", "setting": "[5]", "value": "inhibited infection"}, {"measurement": "cholesterol uptake from LE/LY into cells", "setting": "[6]", "value": "inhibit cholesterol uptake"}, {"measurement": "induction of filipin-labelled cytoplasmic vacuoles", "setting": "[6]", "value": "developed cytoplasmic vacuoles"}, {"measurement": "inhibition of cross-linking of 3.105 to NPC1", "setting": "[10]", "value": "inhibited"}, {"measurement": "inhibition of binding of cleaved EboV GPΔTM to NPC1 membranes", "setting": "[7]", "value": "blocked; also recorded: inhibited binding"}]}
{"molecule": "C#Cc1ccc(COc2ccc(N=[N+]=[N-])cc2CN2CCN(C(=O)CNC(=O)CC34CC5CC(CC(C5)C3)C4)CC2)cc1", "note": "[compound 3.105, 2-((3r,5r,7r)-adamantan-1-yl)-N-(2-(4-(5-azido-2-((4-ethynylbenzyl)oxy)benzyl)piperazin-1-yl)-2-oxoethyl)acetamide]", "values": [{"measurement": "inhibition of EboV GP-dependent infection of Vero cells", "setting": "[1]", "value": "has anti-EboV activity"}, {"measurement": "cross-linking to NPC1", "setting": "[10]", "value": "cross-linked"}]}
{"molecule": "COc1ccc([C@@H]2Sc3ccccc3N(CCN(C)C)C(=O)[C@@H]2OC(C)=O)cc1", "note": "[diltiazen]", "values": [{"measurement": "anti-EboV activity", "setting": "[8]", "value": "weak anti-EboV activity"}]}
{"molecule": "CC/C(=C(\\c1ccccc1)c1ccc(OCCN(C)C)cc1)c1ccccc1", "note": "[tamoxifen]", "values": [{"measurement": "anti-EboV activity", "setting": "[8]", "value": "weak anti-EboV activity"}]}
